This is an account of results in ChEMBL document CHEMBL4177579, “Eudesmane sesquiterpenes from Chinese liverwort are substrates of Cdrs and display antifungal activity by targeting Erg6 and Erg11 of Candida albicans” (Bioorg Med Chem, 2017).

SMILES strings stand for the structures. Converted amounts (≈) assume the structure as drawn.

In data set [1] the test system is Candida albicans. As to the kind of experiment: Antifungal activity against Candida albicans SC5314 incubated for 48 hrs by alamar blue assay. Format: functional. The conditions noted are these: SC5314, 48 h.
Data set [2] relates to Candida albicans. As to the kind of experiment: Antifungal activity against CDR1 deficient Candida albicans DSY448 incubated for 48 hrs by alamar blue assay. Format: functional. The conditions noted are these: DSY448, 48 h.
Data set [3] deals with Candida albicans. As to the kind of experiment: Antifungal activity against MDR1 deficient Candida albicans DSY465 incubated for 48 hrs by alamar blue assay. Format: functional. The conditions noted are these: DSY465, 48 h.
The subject of data set [4] is Candida albicans. Put plainly: Antifungal activity against CDR2 deficient Candida albicans DSY653 incubated for 48 hrs by alamar blue assay. It is filed as functional. The conditions noted are these: DSY653, 48 h. (In general: Resazurin is reduced to fluorescent resorufin, in cell work by metabolically active cells.)
The subject of data set [5] is Candida albicans. As to the kind of experiment: Antifungal activity against CDR1 and CDR2 deficient Candida albicans DSY654 incubated for 48 hrs by alamar blue assay. The note with it: DSY654, 48 h. It is filed as functional.
The test system of data set [6] is Candida albicans. As to the kind of experiment: Inhibition of the yeast-to-hyphal transition in CDR1 and CDR2 deficient Candida albicans DSY654 incubated for 5 days grown in liquid RPMI 1640 medium by microphotography. Format: functional, organism-based.
Data set [7] concerns Candida albicans. As to the kind of experiment: Inhibition of the yeast-to-hyphal transition in CDR1 and CDR2 deficient Candida albicans DSY654 incubated for 5 days grown in solid SD medium by microphotography. It is filed as functional, organism-based.
In data set [8] the test system is Candida albicans. As to the kind of experiment: Drug accumulation in CDR1 and CDR2 deficient Candida albicans DSY654 at 16 ug/ml incubated for 10 hrs by HPLC method relative to wild type Candida albicans SC5314. Format: ADME, organism-based. The note with it: in vivo.
Data set [9] deals with Candida albicans. As to the kind of experiment: Drug accumulation in Candida albicans SC5314 at 16 ug/ml incubated for 10 hrs in presence of 16 ug/ml CDR inhibitor RD by HPLC method relative to untreated control. Format: ADME, organism-based. The note with it: in vivo.
In data set [10] the test system is Candida albicans. As to the kind of experiment: Inhibition of ERG6/ERG11 in CDR1 and CDR2 deficient Candida albicans DSY654 assessed as induction of alteration in sterol composition by measuring ergosterol level at 16 ug/ml incubated for 10 hrs by GC-MS method (reference value: 55.60 +/- 0.29%). Further details: scale not given: the % may be the effect or the level left.

In data set [11] the test system is Candida albicans. As to the kind of experiment: Inhibition of ERG6/ERG11 in CDR1 and CDR2 deficient Candida albicans DSY654 assessed as induction of alteration in sterol composition by measuring zymosterol level at 16 ug/ml incubated for 10 hrs by GC-MS method (reference value: 2.78 +/- 0.53%). Also on record: scale not given: the % may be the effect or the level left.

Data set [12] has as its system Candida albicans. As to the kind of experiment: Inhibition of ERG6/ERG11 in CDR1 and CDR2 deficient Candida albicans DSY654 assessed as induction of alteration in sterol composition by measuring fecosterol level at 16 ug/ml incubated for 10 hrs by GC-MS method (reference value: 8.36 +/- 0.3%). Also on record: scale not given: the % may be the effect or the level left.

Data set [13] relates to Candida albicans. As to the kind of experiment: Inhibition of ERG6/ERG11 in CDR1 and CDR2 deficient Candida albicans DSY654 assessed as induction of alteration in sterol composition by measuring lanosterol level at 16 ug/ml incubated for 10 hrs by GC-MS method (reference value: 1.63 +/- 0.28%). Also on record: scale not given: the % may be the effect or the level left.
Data set [14] has as its system Candida albicans. Put plainly: Inhibition of ERG6/ERG11 in CDR1 and CDR2 deficient Candida albicans DSY654 assessed as feedback mechanism based up-regulation of ERG6 mRNA expression at 16 ug/ml incubated for 10 hrs by qPCR method relative to untreated control. (In qPCR the cycle at which signal appears reflects the starting amount.)
Data set [15] deals with Candida albicans. Put plainly: Inhibition of ERG6/ERG11 in CDR1 and CDR2 deficient Candida albicans DSY654 assessed as feedback mechanism based up-regulation of ERG11 mRNA expression at 16 ug/ml incubated for 10 hrs by qPCR method relative to untreated control.

In the case of `CC1=CCC[C@@]2(C)C[C@@H]3OC(=O)[C@H](C)[C@@H]3C[C@H]12`, the MIC80 against Candida albicans [1], against Candida albicans [2], in the data set with Candida albicans [3], in the data set with Candida albicans [4] and against Candida albicans [5] was above 128 µg/mL each time.
With `CC1(C)C[C@H](O)C[C@@]2(C)OC(=O)C=C12` [LOLIOLIDE], the MIC80 in the data set on Candida albicans [1], in the data set on Candida albicans [2], with Candida albicans [3], with Candida albicans [4] and in the data set with Candida albicans [5] was above 128 µg/mL in each case.
`C=C1CCC[C@@]2(C)C[C@@H]3OC(=O)[C@@](C)(O)[C@@H]3C[C@H]12`: the MIC80 against Candida albicans [1] was above 128 µg/mL; in the data set with Candida albicans [2], above 128 µg/mL; in the data set with Candida albicans [3], above 128 µg/mL; against Candida albicans [4], above 128 µg/mL; with Candida albicans [5] it was 32 µg/mL (≈ 128 µM).
Take `C=C1CCC[C@@]2(C)C[C@@H]3OC(=O)[C@@H](C)[C@@H]3C[C@H]12`: the MIC80 in the data set on Candida albicans [1], with Candida albicans [2], in the data set with Candida albicans [3], in the data set with Candida albicans [4] and with Candida albicans [5] was above 128 µg/mL each time.
`C=C1CCC[C@@]2(C)C[C@@H]3OC(=O)C(=C)[C@@H]3C[C@H]12`: the MIC80 against Candida albicans [1] was above 128 µg/mL; in the data set with Candida albicans [2] it was above 128 µg/mL; against Candida albicans [3] it was above 128 µg/mL; against Candida albicans [4] it was above 128 µg/mL; against Candida albicans [5], 16 µg/mL (≈ 68.9 µM). Also, the inhibition entry with Candida albicans [6] and with Candida albicans [7] was “Dose-dependent effect” in each case. The “fold change (FC)” value with Candida albicans [8] came out at 4.95; in the data set on Candida albicans [9] it was 10.4; with Candida albicans [14], 9.3; in the data set with Candida albicans [15], 2.7. The Activity was 33.7% with Candida albicans [10], 10.8% in the data set on Candida albicans [11], 6.16% with Candida albicans [12] and 17.2% with Candida albicans [13].
`C=C(C)[C@@H]1C[C@@]2(C(C)=O)C[C@@H](O)C[C@@]2(C)C[C@@H]1O`: the MIC80 in the data set on Candida albicans [1], against Candida albicans [2], against Candida albicans [3], against Candida albicans [4] and in the data set with Candida albicans [5] was above 128 µg/mL throughout.
Regarding `C=C1CCC[C@@]2(C)C[C@H](O)[C@H](C(=C)C)C[C@H]12`, the MIC80 in the data set with Candida albicans [1] is above 128 µg/mL; with Candida albicans [2], above 128 µg/mL; in the data set with Candida albicans [3], above 128 µg/mL; in the data set on Candida albicans [4], above 128 µg/mL; against Candida albicans [5], 64 µg/mL (≈ 290 µM).
For `C=C1CCC[C@@]2(C)C[C@@H]3OC(=O)[C@](CO)(OCC)[C@@H]3C[C@H]12`, the MIC80 in the data set with Candida albicans [1], in the data set with Candida albicans [2], in the data set with Candida albicans [3], with Candida albicans [4] and in the data set on Candida albicans [5] was above 128 µg/mL in each case.
With `C=C1CCC[C@@]2(C)C[C@@H]3OC(=O)[C@]4(CO4)[C@@H]3C[C@H]12`, the MIC80 with Candida albicans [1], in the data set on Candida albicans [2], against Candida albicans [3], in the data set with Candida albicans [4] and in the data set with Candida albicans [5] was above 128 µg/mL in each case.
For the compound `C=C(CO)[C@H]1CC[C@]2(C)CCCC(=C)[C@H]2[C@H]1O`, the MIC80 against Candida albicans [1] was above 128 µg/mL; with Candida albicans [2] it was above 128 µg/mL; in the data set on Candida albicans [3] it was above 128 µg/mL; against Candida albicans [4], above 128 µg/mL; against Candida albicans [5] it was 64 µg/mL (≈ 271 µM).
Turning to `C=C1CCC[C@@]2(C)C[C@@]3(O)OC(=O)C(C)=C3C[C@H]12`, the MIC80 in the data set with Candida albicans [1] was above 128 µg/mL; in the data set on Candida albicans [2] it was above 128 µg/mL; with Candida albicans [3], above 128 µg/mL; in the data set on Candida albicans [4], above 128 µg/mL; with Candida albicans [5], 64 µg/mL (≈ 258 µM).
As to `CC1=CC(=O)C[C@@]2(C)CC[C@](O)(C(C)C)C[C@H]12`, the MIC80 against Candida albicans [1], with Candida albicans [2], with Candida albicans [3], against Candida albicans [4] and against Candida albicans [5] was above 128 µg/mL throughout.

Usually MIC80 stands for an inhibitory concentration at the 80% level, which refers to growth in some studies and to a panel of isolates in others.
